Data from US12030880B2, “Iminosulfanone compound as bromodomain protein inhibitor and pharmaceutical composition and medical use thereof” (CHIA TAI TIANQING PHARMACEUTICAL GROUP CO., LTD., priority 2018, dated 2024).

How the values were obtained:
MV4-11 cells = assay: Cell proliferation activity assay in MV4-11; format: cell-based; settings: Homo sapiens, inhibiting cell proliferation, 72 hours, Cell-Titer Blue
Method: (§1) Human acute lymphoblastic leukemia cell line MV4-11 cells were cultured in PRIM1640 medium plus 10% fetal bovine serum (FBS, purchased from Biological Industries, BI) and 1% penicillin/streptomycin double antibody (P/S, purchased from Life Technology) at 37° C. with 5% CO2. On the day before the compound test, MV4-11 cells were spread in a 96-well plate (purchased from Corning) at a concentration of 8000 cells/195 μL/well. After 24 hours, the compound was serially diluted 4-fold with 100% DMSO starting from 10 mM (9 concentrations in total), and then 2 μL of the compound at each concentration was added to 48 μL of PRIM1640 medium for dilution. 5 μL of the diluted compound at each concentration was added to the wells spread with the cell suspension, and the compound and cells were co-incubated in a cell incubator for 72 hours (3 days). Then the mixture was added with 35 μL of Cell-Titer Blue reagent (purchased from Promega) and incubated for another 4 hours. The fluorescence values (excited at 560 nm, detected at 590 nm) were then read on Flexstation III, and the data were calculated using GraphPad Prism software to give IC50 value of the compound in inhibiting cell proliferation.

Kasumi-1 cells = assay: Cell proliferation activity assay in Kasumi-1; format: cell-based; settings: Homo sapiens, inhibiting cell proliferation, 72 hours, Cell-Titer Blue
Method: as §1, with “myeloblastic” for “lymphoblastic”, “Kasumi-1” for “MV4-11”, “20%” for “10%”, “5000” for “8000”

BRD4 (BD1) = BRD4 (BD1) (Homo sapiens (Human), UniProt O60885); assay: In vitro BRD4 (BD1) enzymatic activity assay (HTRF); format: binding; settings: GST-BRD4 (BD1, 44-168 aa)
Method: In the present application, IC50 values of the compounds in inhibiting BRD4 (BD1) enzyme binding reaction were determined by homogeneous time resolved fluorescence (HTRF). A compounds was serially diluted 5-fold with 100% DMSO starting from 0.2 mM (7 concentrations in total), and then 2 μL of the compound at each concentration was added to 48 μL of a reaction buffer (20 mM HEPES pH 7.5, 150 mM NaCl, 5 mM DTT, 0.005% Tween 20, and 100 μg/mL BSA) for dilution, and mixed well. 2.5 μL of the resulting mixture was added to a 384-well plate (OptiPlate-384, purchased from PerkinElmer), then 5 μL of GST-BRD4 (BD1, 44-168 aa) (final concentration: 1 nM) was added, and the resulting mixture was centrifuged, and fully mixed. 2.5 μL of a short peptide Biotin-AHA-SGRGK(Ac)GGK(Ac)GLGK(Ac)GGAK(Ac) RHRKV (final concentration: 100 nM) was then added to initiate the reaction (total reaction volume: 10 μL). The 384-well plate was placed in an incubator at 23° C. to react for 1 hour, and then 5 μL of Eu3+ cryptate-labled anti-GST antibody (purchased from Cisbio) and 5 μL of Streptavidin-XL-665 (purchased from Cisbio) were added to terminate the reaction. After being incubated in the incubator for another 1 hour, the fluorescence values (excited at 320 nm, emitted light at 665 nm and 620 nm being detected, and the ratio of the two being the enzyme binding signal) were read on Envision (purchased from PerkinElmer). The binding strength of each compound to BRD4 (BD1) protein was determined respectively at 7 concentrations, and the data were calculated using GraphPad Prism software to obtain the IC50 value of the compound.

BRD4 (BD2) = BRD4 (BD2) (Homo sapiens (Human), UniProt O60885); assay: In vitro BRD4 (BD2) enzymatic activity assay (HTRF); format: binding; settings: GST-BRD4 (BD2, 349-460 aa)
Method: In the present application, IC50 values of the compounds in inhibiting BRD4 (BD2) enzyme binding reaction were determined by homogeneous time resolved fluorescence (HTRF). A compound was serially diluted 5-fold with 100% DMSO starting from 1 mM (7 concentrations in total), and then 2 μL of the compound at each concentration was added to 18 μL of a reaction buffer (20 mM HEPES pH 7.5, 150 mM NaCl, 5 mM DTT, 0.005% Tween 20, and 100 μg/mL BSA) for dilution. After being mixed well, 2 μL of the compound at each concentration was added to 48 μL of the above reaction buffer for dilution, and mixed well (final concentration of the compound in DMSO: 0.1%). 2.5 μL of the resulting mixture was added to a 384-well plate (OptiPlate-384, purchased from PerkinElmer), then 5 μL of GST-BRD4 (BD2, 349-460 aa) (final concentration: 2 nM) was added, and the resulting mixture was centrifuged, and fully mixed. 2.5 μL of a peptide Biotin-AHA-SGRGK(Ac)GGK(Ac)GLGK(Ac)GGAK(Ac) RHRKV (final concentration: 200 nM) was then added to initiate the reaction (total reaction volume: 10 μL). The 384-well plate was placed in an incubator at 23° C. to react for 1 hour, and then 5 μL of Eu3+ cryptate-labled anti-GST antibody (purchased from Cisbio) and 5 μL of Streptavidin-XL-665 (purchased from Cisbio) were added to terminate the reaction. After being incubated in the incubator for another 1 hour, the fluorescence values (excited at 320 nm, emitted light at 665 nm and 620 nm being detected, and the ratio of the two being the enzyme binding signal) were read on Envision (purchased from PerkinElmer). The binding strength of each compound to BRD4 (BD2) protein was determined respectively at 7 concentrations, and the data were calculated using GraphPad Prism software to obtain the IC50 value of the compound.

Row | IC50 (MV4-11 cells) [nM] | IC50 (BRD4 (BD1)) [nM] | IC50 (BRD4 (BD2)) [nM] | SMILES | IC50 (Kasumi-1 cells) [nM]
1 | 124 |  |  | CCNC(=O)c1cc2c(-c3cc(N=S(C)(C)=O)ccc3Oc3ccc(S(C)(=O)=O)cc3)cn(C)c(=O)c2[nH]1 [Example 1, 4-{5-{[dimethyl(oxo)-λ^6-sulfanylidene]amino}-2-[4-(methylsulfonyl)phenoxy]phenyl}-N-ethyl-6-methyl-7-oxo-6,7-dihydro-1H-pyrrolo[2,3-c]pyridine-2-carboxamide] | 322
2 | 15.1 |  |  | Cn1cc(-c2cc(N=S(C)(C)=O)ccc2Oc2ccc(C#N)cc2F)c2cc[nH]c2c1=O [Example 2, 4-{4-{[dimethyl(oxo)-λ^6-sulfanylidene]amino}-2-(6-methyl-7-oxo-6,7-dihydro-1H-pyrrolo[2,3-c]pyridin-4-yl)phenoxy}-3-fluorobenzonitrile] | 6.6
3 | 30.9 | 7.7 | 0.45 | Cn1cc(-c2cc(N=S(C)(C)=O)ccc2Oc2ccc(S(C)(=O)=O)cc2)c2cc[nH]c2c1=O [Example 3, 4-{5-{[dimethyl(oxo)-λ^6-sulfanylidene]amino}-2-[4-(methylsulfonyl)phenoxy]phenyl}-6-methyl-1,6-dihydro-7H-pyrrolo[2,3-c]pyridin-7-one] | 155
4 | 90.4 | 26.4 | 0.93 | Cc1cccc(Cl)c1Oc1ccc(N=S(C)(C)=O)cc1-c1cn(C)c(=O)c2[nH]ccc12 [Example 6, 4-{2-(2-chloro-6-methylphenoxy)-5-[dimethyl(oxo)-λ^6-sulfanylidene]aminophenyl}-6-methyl-1,6-dihydro-7H-pyrrolo[2,3-c]pyridin-7-one] | 13.6
5 | 152 | 24.3 | 0.34 | CCNC(=O)c1cc2c(-c3cc(N=S(C)(C)=O)ccc3Oc3c(C)cccc3Cl)cn(C)c(=O)c2[nH]1 [Example 7, 4-{2-(2-chloro-6-methylphenoxy)-5-{[dimethyl(oxo)-λ^6-sulfanylidene]amino}phenyl}-N-ethyl-6-methyl-7-oxo-6,7-dihydro-1H-pyrrolo[2,3-c]pyridine-2-carboxamide] | 2.3
6 | 16.1 | 2.4 | 1.3 | Cn1cc(-c2cc(N=S(C)(C)=O)ccc2Nc2ccc(F)cc2F)c2cc[nH]c2c1=O [Example 8, 4-{2-(2,4-difluorophenyl)amino-5-[dimethyl(oxo)-λ^6-sulfanylidene]aminophenyl}-6-methyl-1,6-dihydro-7H-pyrrolo[2,3-c]pyridin-7-one] | 9.3
7 |  | 3 | 0.75 | Cc1ncccc1Oc1ccc(N=S(C)(C)=O)cc1-c1cn(C)c(=O)c2[nH]ccc12 [Example 9, 4-{5-{[dimethyl(oxo)-λ^6-sulfanylidene]amino}-2-[(2-methyl-pyridin-3-yl)oxy]phenyl}-6-methyl-1,6-dihydro-7H-pyrrolo[2,3-c]pyridin-7-one] | 
8 | 240 | 96.3 | 0.53 | CCNC(=O)c1cc2c(-c3cc(N=S(C)(C)=O)ccc3Oc3c(C)cc(F)cc3C)cn(C)c(=O)c2[nH]1 [Example 10, 4-{5-{[dimethyl(oxo)-λ^6-sulfanylidene]amino}-2-(4-fluoro-2,6-dimethylphenoxy)phenyl}-N-ethyl-6-methyl-7-oxo-6,7-dihydro-1H-pyrrolo[2,3-c]pyridine-2-carboxamide] | 66.3
9 | 124 | 29.4 | 1.3 | Cc1cc(F)cc(C)c1Oc1ccc(N=S(C)(C)=O)cc1-c1cn(C)c(=O)c2[nH]ccc12 [Example 11, 4-{5-{[dimethyl(oxo)-λ^6-sulfanylidene]amino}-2-(4-fluoro-2,6-dimethylphenoxy)phenyl}-6-methyl-1,6-dihydro-7H-pyrrolo[2,3-c]pyridin-7-one] | 53.2
10 | 27.8 | 4.1 | 1.1 | Cn1cc(-c2cc(N=S(C)(C)=O)ccc2OCC2CCOC2)c2cc[nH]c2c1=O (stereo not shown) [Example 12, 4-{5-{[dimethyl(oxo)-λ^6-sulfanylidene]amino}-2-[(tetrahydrofuran-3-yl)methoxy]phenyl}-6-methyl-1,6-dihydro-7H-pyrrolo[2,3-c]pyridin-7-one] | 20.7
11 | 139 | 27.9 | 4 | CCOC(=O)c1cc2c(-c3cc(N=S(C)(C)=O)ccc3Oc3c(C)cc(F)cc3C)cn(C)c(=O)c2[nH]1 [Example 14, Ethyl 4-{5-{[dimethyl(oxo)-λ^6-sulfanylidene]amino}-2-(4-fluoro-2,6-dimethylphenoxy)phenyl}-6-methyl-7-oxo-6,7-dihydro-1H-pyrrolo[2,3-c]pyridine-2-carboxylate] | 72
12 | 9.1 | 4.5 | 1.2 | Cn1cc(-c2cc(N=S3(=O)CCCC3)ccc2Oc2ccc(F)cc2F)c2cc[nH]c2c1=O [Example 15, 4-{2-(2,4-difluorophenoxy)-5-[(1-oxidotetrahydro-1λ^6-thiophen-1-ylidene)amino]phenyl}-6-methyl-1,6-dihydro-7H-pyrrolo[2,3-c]pyridin-7-one] | 13.7
13 |  | 330 | 4 | Cc1cn(-c2ccc(N=S(C)(C)=O)cc2-c2cn(C)c(=O)c3[nH]ccc23)ccc1=O [Example 17, 4-{5-{[dimethyl(oxo)-λ^6-sulfanylidene]amino}-2-[3-methyl-4-oxopyridin-1(4H)-yl]phenyl}-6-methyl-1,6-dihydro-7H-pyrrolo[2,3-c]pyridin-7-one] | 
14 |  | 188 | 0.88 | Cc1cc(F)cc(C)c1Oc1ccc(N=S(C)(C)=O)cc1-c1cn(C)c(=O)c2[nH]c(C(=O)NCC(F)(F)F)cc12 [Example 22, 4-{5-{[dimethyl(oxo)-λ^6-sulfanylidene]amino}-2-(4-fluoro-2,6-dimethylphenoxy)phenyl}-6-methyl-7-oxo-N-(2,2,2-trifluoroethyl)-6,7-dihydro-1H-pyrrolo[2,3-c]pyridine-2-carboxamide] | 
